These results are taken from patent US20260240869A1, “ANTIPSEUDOMONAL FUSIDIC ACID COMPOUNDS” (priority 2022, published 2026).

Values after ≈ are worked out from the molar mass of the structure shown. Like-named read-outs stand apart in the source and are kept apart here.

Experiment [1] relates to P. aeruginosa PAO1. Description: NPN outer membrane permeability assay. Type of experiment: cell-based, Pseudomonas aeruginosa. Particulars: treatment for ten minutes. The source says:
Further, the fluorescent probe N-phenylnapthylamine (NPN) was used to assess outer membrane permeability changes upon treatment with FA, gentamicin, and FA prodrug. NPN is membrane impermeable and is only weakly fluorescent in aqueous solutions. Upon entry to the cell and interacting with phospholipids, significant fluorescence is observed. […] This residual membrane depolarizing antibacterial activity can be observed in the FA polyamine (FIG. 4a) and the diacylated compound (Table 9).

The test system of a further experiment is E. coli MG1655. Description: LC-MS/MS whole-cell accumulation assay, E. coli MG1655. Type of experiment: cell-based. Particulars: E. coli MG1655; accumulation of FA reported (Table 8). The protocol:
(§1) Accumulation Assay. The accumulation assay was performed in triplicate in batches of ten samples, with each batch containing tetracycline or ciprofloxacin as a positive control. P. aeruginosa PAO1, PAO1 A6, PA14, PA14 A40, and PA1280, and E. coli MG1655 were used in these experiments. For each replicate, 2.5 mL (E. coli) or 5 mL (P. aeruginosa) of an overnight culture was diluted into 250 mL of fresh Luria-Bertani broth (Lennox) or Tryptic Soy Broth (TSB) and grown at 37° C. with shaking to an optical density (OD600) of 0.55-0.60. The bacteria were pelleted at 3220 r.c.f. for 10 min at 4° C., and the supernatant was discarded. The pellets were resuspended in 40 mL of phosphate buffered saline (PBS) and pelleted as before, and the supernatant was discarded. The pellets were resuspended in 8.8 mL of fresh PBS and aliquoted into ten, 1.5 mL Eppendorf tubes (875 μL each). The number of colony-forming units (CFUs) was determined by a calibration curve. The samples were equilibrated at 37° C. with shaking for 5 min; compound was added (final concentration=50 μM), and then the samples were incubated at 37° C. with shaking for either 10 min. These time points were short enough to minimize metabolic and growth changes (no changes in OD600 or CFU count observed). After incubation, 800 μL of the cultures was carefully layered on 700 μL of silicone oil (9:1 AR20/Sigma High Temperature, cooled to −78° C.). Bacteria were pelleted through the oil by centrifuging at 13 000 r.c.f. for 2 min at room temperature (with the supernatant remaining above the oil); the supernatant and oil were then removed by pipetting. To lyse the samples, each pellet was dissolved in […] of water, and then, they were subjected to three (E. coli) or four (P. aeruginosa) freeze-thaw cycles of 3 min in liquid nitrogen followed by 3 min in a water bath at 65° C. P. aeruginosa samples were then treated with 50 µM DNase and RNase and incubated at 37° C. for 15 minutes. The lysates were pelleted at 13 000 r.c.f. for 2 min at room temperature, and the supernatant was collected ([…]). The debris was resuspended in 100 μL of methanol and pelleted as before. The supernatants were removed and combined with the previous supernatants collected. Finally, the remaining debris was removed by centrifuging at 20 000 r.c.f. for 10 min at room temperature. Supernatants were analyzed by LC-MS/MS.
(§2) Samples were analyzed with the 5500 QTRAP LC/MS/MS system (AB Sciex) with a 1200 series HPLC system (Agilent Technologies) including a degasser, an autosampler, and a binary pump. Liquid chromatography separation was performed on an Agilent SB-Aq column (4.6×50 mm, 5 μm) (Agilent Technologies) with mobile phase A (0.1% formic acid in water) and mobile phase B (0.1% formic acid in acetonitrile). The flow rate was 0.3 mL/min. The linear gradient was as follows: 0-3 min, 100% mobile phase A; 10-15 min, 2% mobile phase A; 15.5-21 min, 100% mobile phase A. The autosampler was set at 5° C. The injection volume was 15 μL. Mass spectra were acquired with both positive electrospray ionization at the ion spray voltage of 5500 V and negative electrospray ionization at the ion spray voltage of −4500 V. The source temperature was 450° C. The curtain gas, ion source gas 1, and ion source gas 2 were 33, 50, and 65, respectively. Multiple reaction monitoring was used to quantify the metabolites. Power analysis was not used to determine the number of replicates. Error bars represent the standard error of the mean of three biological replicates. The statistical significance of the accumulation was determined using a two sample Welch's t test (one-tailed test, assuming unequal variance) relative to the negative controls. All compounds evaluated in the biological assays were >95% pure.

The test system of experiment [2] is P. aeruginosa PAO1. Description: LC-MS/MS whole-cell accumulation assay, P. aeruginosa PAO1. The experiment is classed as cell-based, Pseudomonas aeruginosa. As to conditions: for PA Accumulation (FA): P. aeruginosa PAO1, accumulation of FA reported (Table 8). The protocol: as §1, §2
MBN assay. Assays measuring permeabilization by polymyxin B nonapeptide (PMBN) were performed as above, with the addition of 8 μg/mL PMBN immediately before the compound of interest was added.

For the next experiment, the system named is S. aureus ATCC 29213. Description: MIC, S. aureus ATCC 29213. Particulars: Staphylococcus aureus. The experiment is classed as cell-based. On the procedure: (§3) Antimicrobial Susceptibility Tests. Susceptibility testing was performed in biological triplicate, using the microdilution broth method as outlined by the Clinical and Laboratory Standards Institute. Bacteria were cultured with cation-adjusted Meuller-Hinton broth (Sigma-Aldrich; catalogue number: 90922) or Luria-Bertani (LB) broth (Lennox) in round-bottom 96-well plates (Corning; catalogue number: 3788).

In experiment [3] the test system is P. aeruginosa PAO1. Description: DiSC3 (5) inner membrane depolarization assay. Type of experiment: cell-based, Pseudomonas aeruginosa.
The test system of a further experiment is P. aeruginosa PA14. Description: MIC, P. aeruginosa PA14. The experiment is classed as cell-based, Pseudomonas aeruginosa. Particulars: Pseudomonas aeruginosa. The protocol: as §3
Experiment [4] has as its system P. aeruginosa PAO1. Description: MIC, CLSI broth microdilution, P. aeruginosa PAO1. Type of experiment: cell-based, Pseudomonas aeruginosa. Particulars: for MIC P. aeruginosa PAO1, CAMH: CAMH (Table 10); for shift in MIC on co-treatment with 5 mM MgCl2: P. aeruginosa PAO1; for MIC: Pseudomonas aeruginosa; for MIC P. aeruginosa PAO1, 5 mM MgCl2/CAMH: co-treatment 5 mM MgCl2 in CAMH (Table 10). In short, it runs like this: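 Growth medium was cation-adjusted Mueller-Hinton or Lennox LB broth. MICs came from CLSI-style broth microdilution done in three biological replicates.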
(In general: In broth dilution the organism is exposed to a series of concentrations in liquid medium.)

Experiment [5] has as its system FA resistance mutants of P. aeruginosa PAO1 A6. Description: MIC in FA-resistant mutants. Type of experiment: cell-based, Pseudomonas aeruginosa. Particulars: mutants generated in PAO1 A6. The protocol: as §3
Selection ofresistant mutants. Resistant mutants were selected using the large inoculum method. […] Colonies were visible after incubating at 37° C. for 72 h.

`CC(=O)O[C@H]1C[C@@]2(C)[C@@H](C[C@@H](O)[C@H]3[C@@]4(C)CC[C@@H](O)[C@@H](C)[C@@H]4CC[C@@]32C)/C1=C(\CCC=C(C)C)C(=O)O/N=C(\N)CNCCCNCCCNCCCN` [FA prodrug, (3R, 4S,5S,8S,9S,10S,11R,13R,14S,16S,Z)-17-((Z)-1,14-diamino-22-methyl-17-oxo-16-oxa-4,8,12,15-tetraazatricosa-14,21-dien-18-ylidene)-3,11-dihydroxy-4,8,10,14-tetramethylhexadecahydro-1H-cyclopenta[a]phenanthren-16-yl acetate]: the “NPN fluorescence (outer membrane permeability)” value in the experiment on P. aeruginosa PAO1 [1] was “dose-dependent increase”. In the experiment with E. coli MG1655, the “EC Accumulation (FA)” value stood at 3337 ± 175 nmol/1012 CFUs. Moreover, in the experiment with P. aeruginosa PAO1 [2], the “PA Accumulation (FA)” value came out at 3396 ± 122 nmol/1012 CFUs. For the same compound, the MIC (in general, the least concentration at which growth counts as inhibited) in the experiment with S. aureus ATCC 29213 (ATCC29213, read-out: MIC S. aureus ATCC 29213) came to 1 µg/mL; in the experiment on P. aeruginosa PA14 (PA14), 8 µg/mL; in the experiment on P. aeruginosa PAO1 [4] (PAO1), 4 µg/mL; in the experiment on P. aeruginosa PAO1 [4] (PAO1, read-out: MIC P. aeruginosa PAO1) it was 4 µg/mL; in the experiment on P. aeruginosa PAO1 [4] (PAO1, read-out: P. aeruginosa PAO1 MIC), 4 µg/mL. Besides, the “inner membrane depolarization (DiSC3 (5) fluorescence)” value in the experiment with P. aeruginosa PAO1 [3] is listed as “dose-dependent inner membrane depolarization”. This compound registered an MIC against P. aeruginosa PAO1 in the experiment on P. aeruginosa PAO1 [4] of 4 µg/mL. For the same compound, the “Fold change (MIC)” value in the experiment on P. aeruginosa PAO1 [4] (5 mM MgCl2/CAMH versus CAMH (Table 10)) was 32X. For the same compound, the MIC P. aeruginosa PAO1, CAMH with P. aeruginosa PAO1 [4] was found to be 4 µg/mL. Besides, the “shift in MIC on co-treatment with 5 mM MgCl2” value in the experiment on P. aeruginosa PAO1 [4] is 32 -fold. Moreover, the “increase in activity relative to FA” value in the experiment on P. aeruginosa PAO1 [4] (PAO1 MIC) is recorded as 256 -fold. Further, the “MIC P. aeruginosa PAO1, 5 mM MgCl2/CAMH” value in the experiment with P. aeruginosa PAO1 [4] was determined as 128. Besides, the “MIC fold change in FA-resistant strains” value in experiment [5] is “several fold change”.

As for `CC(=O)O[C@H]1C[C@@]2(C)[C@@H](C[C@@H](O)[C@H]3[C@@]4(C)CC[C@@H](O)[C@@H](C)[C@@H]4CC[C@@]32C)/C1=C(\CCC=C(C)C)C(=O)O` [FA, Fusidic acid], the “NPN fluorescence (outer membrane permeability)” value in the experiment with P. aeruginosa PAO1 [1] is “did not lead to any change in fluorescence”. Moreover, the “EC Accumulation (FA)” value in the experiment on E. coli MG1655 is 52 ± 5 nmol/1012 CFUs. In the experiment on P. aeruginosa PAO1 [2] (FIG. 1a / FIG. 5), the “accumulation in PAO1 (in words)” value is “does not accumulate”. Further, the “PA Accumulation (FA)” value in the experiment with P. aeruginosa PAO1 [2] is 80 ± 7 nmol/1012 CFUs. Moreover, the “change of accumulation upon membrane permeabilization” value in the experiment with P. aeruginosa PAO1 [2] (treatment with PMBN, FIG. 1b) was “significant increase in accumulation”. The minimum inhibitory concentration (MIC) with S. aureus ATCC 29213 (ATCC29213, Table 9, read-out: MIC S. aureus ATCC 29213) is 0.125 µg/mL (≈ 0.242 µM); in the experiment on P. aeruginosa PA14 (Reference strain PA14 (Table 11), read-out: MIC), over 1020 µg/mL; in the experiment on P. aeruginosa PAO1 [4] (PAO1, CLSI (Table 8), read-out: P. aeruginosa PAO1 MIC), 1020 µg/mL (≈ 1980 µM); with P. aeruginosa PAO1 [4] (PAO1, Table 9, read-out: MIC P. aeruginosa PAO1), 1020 µg/mL (≈ 1980 µM); with P. aeruginosa PAO1 [4] (Reference strain PAO1 (Table 11), read-out: MIC) it was 1020 µg/mL (≈ 1980 µM); in the experiment with P. aeruginosa PAO1 [4] (WT P. aeruginosa PAO1, MH broth (Table 1), read-out: PAO1 MIC), over 512 µg/mL. Besides, the “inner membrane depolarization (DiSC3 (5) fluorescence)” value in the experiment on P. aeruginosa PAO1 [3] was “did not impact membrane polarization”. For the same compound, the MIC P. aeruginosa PAO1, CAMH against P. aeruginosa PAO1 [4] amounted to 1020 µg/mL (≈ 1980 µM). In addition, the “shift in MIC on co-treatment with 5 mM MgCl2” value in the experiment with P. aeruginosa PAO1 [4] is recorded as “no change in antibacterial activity”. In the experiment with P. aeruginosa PAO1 [4], the “MIC P. aeruginosa PAO1, 5 mM MgCl2/CAMH” value is 1024. For the same compound, in the experiment on P. aeruginosa PAO1 [4] (co-treatment of 8 μg/mL of PMBN, MH broth), the “PAO1 + PMBN MIC” value is 4 µg/mL. The “MIC versus PAO1” value against P. aeruginosa PAO1 [4] (text b125, Chart 6) stood at 1024 μg/mLh. For the same compound, the “MIC fold change in FA-resistant strains” value in experiment [5] is recorded as 32-128 ×.
